Assay results: ChEMBL document CHEMBL1909046, “DrugMatrix in vitro pharmacology data”

Columns and labels:
[1] = target: Vascular endothelial growth factor receptor 1 (Homo sapiens, UniProt P17948); format: cell-based; details: huvec; note: in other assays of this panel Not Active means under 50% inhibition at 10 µM
[2] = target: T1, Neuropeptide Y receptor type 1 (Homo sapiens, UniProt P25929); format: cell membranes, Membrane; details: sk-n-mc; note: in other assays of this panel Not Active means under 50% inhibition at 10 µM
T1 sequence (P25929 whole entry): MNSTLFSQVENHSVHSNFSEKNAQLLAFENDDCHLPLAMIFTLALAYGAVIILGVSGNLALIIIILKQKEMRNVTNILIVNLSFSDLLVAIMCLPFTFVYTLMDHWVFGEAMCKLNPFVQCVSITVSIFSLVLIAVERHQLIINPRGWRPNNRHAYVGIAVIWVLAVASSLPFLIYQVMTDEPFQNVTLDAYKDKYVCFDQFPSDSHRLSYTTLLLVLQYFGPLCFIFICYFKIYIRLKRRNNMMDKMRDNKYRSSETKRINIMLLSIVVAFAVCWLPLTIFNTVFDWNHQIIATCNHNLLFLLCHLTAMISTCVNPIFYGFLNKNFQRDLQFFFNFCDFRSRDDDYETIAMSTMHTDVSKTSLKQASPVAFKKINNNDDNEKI

[3] = target: Beta-2 adrenergic receptor (Homo sapiens, UniProt P07550); assay: DRUGMATRIX: Adrenergic beta2 radioligand binding (ligand: [3H] CGP-12177); format: cell membranes, Membrane; details: cho; Not Active = under 50% inhibition at 10 µM
[4] = DRUGMATRIX: Imidazoline I2, Central radioligand binding (ligand: [3H] Idazoxan); format: cell membranes, Rattus norvegicus, Wistar, Cerebral cortex, Membrane; details: Not Active = under 50% inhibition at 10 µM
[5] = target: T2, Alpha-2A adrenergic receptor (Homo sapiens, UniProt P08913); format: cell membranes, Sf9, Membrane; details: sf9; note: in other assays of this panel Not Active means under 50% inhibition at 10 µM
T2 sequence (P08913 whole entry): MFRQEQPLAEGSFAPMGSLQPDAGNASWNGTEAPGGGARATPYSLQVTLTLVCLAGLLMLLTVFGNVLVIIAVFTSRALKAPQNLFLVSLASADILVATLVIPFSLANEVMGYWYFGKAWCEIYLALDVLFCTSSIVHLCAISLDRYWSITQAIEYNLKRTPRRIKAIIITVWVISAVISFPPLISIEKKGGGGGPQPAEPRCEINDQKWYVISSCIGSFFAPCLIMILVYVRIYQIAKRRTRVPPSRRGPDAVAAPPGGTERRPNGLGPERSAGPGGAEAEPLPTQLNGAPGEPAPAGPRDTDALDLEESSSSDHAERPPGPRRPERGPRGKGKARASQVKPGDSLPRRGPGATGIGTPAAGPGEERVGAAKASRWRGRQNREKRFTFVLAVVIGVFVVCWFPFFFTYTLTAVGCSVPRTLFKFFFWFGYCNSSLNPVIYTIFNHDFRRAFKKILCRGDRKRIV

[6] = target: T3, Neuropeptide Y receptor type 2 (Homo sapiens, UniProt P49146); format: cell membranes, Membrane; details: kan-ts; note: in other assays of this panel Not Active means under 50% inhibition at 10 µM
T3 sequence (P49146 whole entry): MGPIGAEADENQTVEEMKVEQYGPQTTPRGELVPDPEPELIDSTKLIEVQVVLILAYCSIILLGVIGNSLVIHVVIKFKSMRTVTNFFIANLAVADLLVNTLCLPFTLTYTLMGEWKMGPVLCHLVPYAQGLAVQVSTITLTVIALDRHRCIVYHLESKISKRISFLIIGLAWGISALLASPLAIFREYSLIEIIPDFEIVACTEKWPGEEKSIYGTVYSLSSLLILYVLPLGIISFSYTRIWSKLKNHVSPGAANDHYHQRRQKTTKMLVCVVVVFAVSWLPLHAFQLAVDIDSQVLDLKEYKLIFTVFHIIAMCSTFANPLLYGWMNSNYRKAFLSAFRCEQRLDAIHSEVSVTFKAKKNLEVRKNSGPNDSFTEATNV

[7] = target: T4, Alpha-2C adrenergic receptor (Homo sapiens, UniProt P18825); assay: DRUGMATRIX: Adrenergic Alpha-2C radioligand binding (ligand: [3H] MK-912); format: cell membranes, Sf9, Membrane; details: sf9
T4 sequence (P18825 whole entry): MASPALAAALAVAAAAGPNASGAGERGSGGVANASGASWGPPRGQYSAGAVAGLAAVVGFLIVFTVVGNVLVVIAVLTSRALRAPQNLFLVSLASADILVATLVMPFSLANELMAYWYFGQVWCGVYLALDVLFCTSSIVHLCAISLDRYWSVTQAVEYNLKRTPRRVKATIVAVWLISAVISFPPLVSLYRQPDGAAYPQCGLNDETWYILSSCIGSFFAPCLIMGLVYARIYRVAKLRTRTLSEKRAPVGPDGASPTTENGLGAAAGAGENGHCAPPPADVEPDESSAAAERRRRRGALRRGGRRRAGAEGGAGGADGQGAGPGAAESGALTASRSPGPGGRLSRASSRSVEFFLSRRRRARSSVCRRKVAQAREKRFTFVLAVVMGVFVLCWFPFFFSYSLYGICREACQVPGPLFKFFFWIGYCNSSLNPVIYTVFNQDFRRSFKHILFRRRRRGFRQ

[8] = target: Aldo-keto reductase family 1 member B1 (Rattus norvegicus, UniProt P07943); assay: biochemical; format: tissue-based, Lens of camera-type eye
Progesterone receptor = target: T5, Progesterone receptor (Bos taurus, UniProt Q690N0); assay: DRUGMATRIX: Progesterone radioligand binding (ligand: [3H] R-5020); format: tissue-based, Uterus; details: Not Active = under 50% inhibition at 10 µM
T5 sequence (Q690N0 whole entry): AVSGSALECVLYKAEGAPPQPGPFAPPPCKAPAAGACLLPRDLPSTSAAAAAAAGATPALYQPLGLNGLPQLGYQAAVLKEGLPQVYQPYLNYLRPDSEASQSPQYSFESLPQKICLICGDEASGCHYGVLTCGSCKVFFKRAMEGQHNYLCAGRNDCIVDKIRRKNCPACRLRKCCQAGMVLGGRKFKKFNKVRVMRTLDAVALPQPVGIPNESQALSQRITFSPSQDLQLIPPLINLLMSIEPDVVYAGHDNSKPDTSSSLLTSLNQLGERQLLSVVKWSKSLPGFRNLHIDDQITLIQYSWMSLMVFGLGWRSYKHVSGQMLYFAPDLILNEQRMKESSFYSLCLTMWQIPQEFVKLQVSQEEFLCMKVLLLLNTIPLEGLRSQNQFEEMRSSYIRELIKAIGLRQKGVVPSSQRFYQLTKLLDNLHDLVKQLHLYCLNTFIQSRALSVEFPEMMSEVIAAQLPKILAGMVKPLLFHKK

[9] = DRUGMATRIX: GABAA, Muscimol, Central radioligand binding (ligand: [3H] Muscimol); format: cell membranes, Rattus norvegicus, Wistar, Brain, Membrane; details: Not Active = under 50% inhibition at 10 µM

Sequence of Beta-2 adrenergic receptor (P07550 whole entry): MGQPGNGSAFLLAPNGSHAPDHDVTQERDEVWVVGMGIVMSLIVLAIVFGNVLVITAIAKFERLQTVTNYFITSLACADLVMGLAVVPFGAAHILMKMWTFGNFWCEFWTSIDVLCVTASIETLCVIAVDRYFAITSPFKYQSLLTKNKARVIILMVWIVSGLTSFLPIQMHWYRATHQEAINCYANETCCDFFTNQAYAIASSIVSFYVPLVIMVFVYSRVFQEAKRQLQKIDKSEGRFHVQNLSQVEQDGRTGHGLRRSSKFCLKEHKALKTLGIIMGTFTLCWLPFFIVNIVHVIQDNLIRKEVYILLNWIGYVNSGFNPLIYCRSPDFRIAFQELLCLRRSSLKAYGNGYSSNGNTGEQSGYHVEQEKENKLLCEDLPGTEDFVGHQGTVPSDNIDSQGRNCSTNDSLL
Sequence of Vascular endothelial growth factor receptor 1 (P17948 whole entry): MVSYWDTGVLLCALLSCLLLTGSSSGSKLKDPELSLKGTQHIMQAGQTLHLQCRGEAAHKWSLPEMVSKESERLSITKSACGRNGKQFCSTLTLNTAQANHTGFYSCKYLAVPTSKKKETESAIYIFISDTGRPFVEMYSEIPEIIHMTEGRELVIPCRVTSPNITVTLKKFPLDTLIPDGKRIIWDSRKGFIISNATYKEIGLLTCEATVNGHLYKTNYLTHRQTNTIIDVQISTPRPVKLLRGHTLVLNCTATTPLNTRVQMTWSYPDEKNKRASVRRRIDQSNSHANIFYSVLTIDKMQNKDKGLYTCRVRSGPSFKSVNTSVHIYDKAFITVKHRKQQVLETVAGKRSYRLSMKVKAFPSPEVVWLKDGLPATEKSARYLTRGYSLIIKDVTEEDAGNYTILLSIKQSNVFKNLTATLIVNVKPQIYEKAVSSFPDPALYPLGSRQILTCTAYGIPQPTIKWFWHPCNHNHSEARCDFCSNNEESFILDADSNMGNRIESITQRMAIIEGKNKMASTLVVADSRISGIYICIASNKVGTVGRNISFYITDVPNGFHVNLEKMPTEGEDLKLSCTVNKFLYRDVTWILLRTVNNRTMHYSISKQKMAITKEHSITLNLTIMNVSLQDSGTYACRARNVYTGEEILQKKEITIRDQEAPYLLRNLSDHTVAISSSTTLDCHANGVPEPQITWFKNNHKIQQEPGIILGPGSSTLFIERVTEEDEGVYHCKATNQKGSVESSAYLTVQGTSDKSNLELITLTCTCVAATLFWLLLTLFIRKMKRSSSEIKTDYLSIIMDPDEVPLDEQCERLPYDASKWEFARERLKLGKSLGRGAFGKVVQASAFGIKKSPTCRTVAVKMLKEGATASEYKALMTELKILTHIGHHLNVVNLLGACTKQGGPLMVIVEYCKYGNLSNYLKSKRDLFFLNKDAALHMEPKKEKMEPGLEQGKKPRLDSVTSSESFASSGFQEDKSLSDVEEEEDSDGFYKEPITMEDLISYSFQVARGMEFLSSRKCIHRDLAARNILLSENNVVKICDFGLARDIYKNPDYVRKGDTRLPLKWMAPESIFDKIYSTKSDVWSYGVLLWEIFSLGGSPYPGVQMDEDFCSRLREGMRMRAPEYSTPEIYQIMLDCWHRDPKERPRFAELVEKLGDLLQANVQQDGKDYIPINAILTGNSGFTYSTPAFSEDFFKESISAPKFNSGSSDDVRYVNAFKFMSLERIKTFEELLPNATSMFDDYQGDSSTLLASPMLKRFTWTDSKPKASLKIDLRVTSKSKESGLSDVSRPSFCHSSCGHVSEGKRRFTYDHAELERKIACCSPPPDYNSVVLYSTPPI

CN1C(C(=O)Nc2ccccn2)=C(O)c2sccc2S1(=O)=O [TENOXICAM]
Not Active: IC50 [1] | IC50 [2] | IC50 [3] | IC50 [4] | Ki [4] | IC50 [5] | IC50 [6] | IC50 [7] | IC50 [8] | IC50 (Progesterone receptor) | IC50 [9] | Ki [9]

O=C1CCC(N2C(=O)c3ccccc3C2=O)C(=O)N1 (stereo not drawn) [THALIDOMIDE]
Not Active: IC50 [1] | IC50 [2] | IC50 [3] | IC50 [4] | Ki [4] | IC50 [5] | IC50 [6] | IC50 [7] | IC50 [8] | IC50 (Progesterone receptor) | IC50 [9] | Ki [9]

Cc1cccc(Nc2ccncc2S(=O)(=O)NC(=O)NC(C)C)c1 [TORSEMIDE]
Not Active: IC50 [1] | IC50 [2] | IC50 [3] | IC50 [4] | Ki [4] | IC50 [5] | IC50 [6] | IC50 [7] | IC50 [8] | IC50 (Progesterone receptor) | IC50 [9] | Ki [9]

CC(C)C[C@H](NC(=O)[C@@H](O)[C@H](N)Cc1ccccc1)C(=O)O [UBENIMEX]
Not Active: IC50 [1] | IC50 [2] | IC50 [3] | IC50 [4] | Ki [4] | IC50 [5] | IC50 [6] | IC50 [7] | IC50 [8] | IC50 (Progesterone receptor) | IC50 [9] | Ki [9]

Cc1onc(-c2ccccc2)c1-c1ccc(S(N)(=O)=O)cc1 [VALDECOXIB]
Not Active: IC50 [1] | IC50 [2] | IC50 [3] | IC50 [4] | Ki [4] | IC50 [5] | IC50 [6] | IC50 [7] | IC50 [8] | IC50 (Progesterone receptor) | IC50 [9] | Ki [9]

CC[C@]1(O)C[C@@H]2CN(CCc3c([nH]c4ccccc34)[C@@](C(=O)OC)(c3cc4c(cc3OC)N(C)[C@H]3[C@@](O)(C(=O)OC)[C@H](OC(C)=O)[C@]5(CC)C=CCN6CC[C@]43[C@@H]65)C2)C1 [VINBLASTINE]
Not Active: IC50 [1] | IC50 [2] | IC50 [3] | IC50 [4] | Ki [4] | IC50 [5] | IC50 [6] | IC50 [7] | IC50 [8] | IC50 (Progesterone receptor) | IC50 [9] | Ki [9]

CC(=O)CC(c1ccccc1)c1c(O)c2ccccc2oc1=O (stereo not drawn) [WARFARIN]
Not Active: IC50 [1] | IC50 [2] | IC50 [3] | IC50 [4] | Ki [4] | IC50 [5] | IC50 [6] | IC50 [7] | IC50 [8] | IC50 (Progesterone receptor) | IC50 [9] | Ki [9]

C[C@@H](N)[C@H]1CC[C@H](C(=O)Nc2ccncc2)CC1 [Y-27632]
Not Active: IC50 [1] | IC50 [2] | IC50 [3] | IC50 [4] | Ki [4] | IC50 [5] | IC50 [6] | IC50 [7] | IC50 [8] | IC50 (Progesterone receptor) | IC50 [9] | Ki [9]

[Cl-].[Cl-].[Zn+2] [ZINC CHLORIDE]
Not Active: IC50 [1] | IC50 [2] | IC50 [3] | IC50 [4] | Ki [4] | IC50 [5] | IC50 [6] | IC50 [7] | IC50 [8] | IC50 (Progesterone receptor) | IC50 [9] | Ki [9]
